Reference: patent publication US10294253B2, “Siloxane-containing phospholipids, compositions and uses thereof” (priority 2016, dated 2019)
Values joined by “and” are separate entries in the source; they are usually repeats but may differ in a detail not shown here. Equal values may be shown once. Read-outs that look alike come from different tables or passages of the source. Marks after values point to notes of the source that are not given here.

Tests used:
[1] = fixed using experimentally determined volume, cited from earlier work; for ρH (fit parameter, headgroup electron density relative to water): 20° C
[2] = Dynamic light scattering (DLS) of liposome suspensions; format: physicochemical; conditions: for Dia. (vesicle diameter, most abundant population) / Rel. pop. (most abundant population) / Dia. (vesicle diameter, second population) / Rel. pop. (second population): aqueous suspension; for Dia. (vesicle diameter, most abundant population): POPC with 5 mol % POPG extruded through 100 nm membrane, SiPC not extruded; for Rel. pop. (most abundant population): first population; for polydispersity: most abundant population, liposomes not extruded
Procedure: POPC ULVs contain 5 mol % of 1-palmitoyl-2-oleoyl-sn-3-glcyercophosphoglycerol (POPG) and were extruded through a 100 nm polycarbonate membrane. SiPC suspensions were not extruded.
(§1) SiPCs were prepared as described above in Example 1. Aqueous dispersions of SiPCs were prepared by five freeze-thaw cycles to give opaque suspensions of vesicles suitable for Small-angle X-ray scattering (SAXS) analysis. Dispersion particle size was determined by dynamic light scattering (DLS) with a Nano Zetasizer ZS90 (Malvern Instruments, Worcestershire, U.K.).
(§2) 1-Palmitoyl-2-oleoyl-sn-3-glycercophosphocholine (POPC) and 1-palmitoyl-2-oleoyl-sn-3-glcyercophosphoglycerol (POPG) were purchased from Avanti Polar Lipids (Alabaster, Ala.) and used as received. POPC and 5 mol % POPG were co-dissolved in a chloroform:methanol (3:1) mixture. POPC was doped with 5 mol % POPG, to minimize pauci-lamellar vesicle contamination. Solvent was removed under a gentle stream of dry nitrogen gas then was put under vacuum for 8 hours. POPC:POPG film was hydrated with ultrapure water to a concentration of ˜30 mg/mL. ULVs were prepared using a manual miniextruder (Avanti Polar Lipids, Alabaster, Ala.), assembled with a 100 nm pore-diameter polycarbonate filter. The lipid suspension was passed through the filter 31 times. SAXS data were collected at the P12 BioSAXS beamline at the storage ring PETRA III (synchrotron DESY, Hamburg)^26 at a temperature of 20° C. SAXS data were visualized, averaged and the background was subtracted using ATSAS^27 and modelled using the method of Pabst et al.^28 The data was fit utilizing a standard non-linear least-squares fitting (NLSF) scheme within Origin (OriginLab, USA). Vesicle size was determined by dynamic light scattering (DLS) with a Nano Zetasizer ZS90 (Malvern Instruments, Worcestershire, U.K.)
The diameter standard deviation (a) for the vesicles (most abundant population) was below 20% of the diameter for liposomes of 1,2-SiPC and 1,3-SiPC, thus implying very low polydispersities of 0.16 and 0.19 respectively.

[3] = Small-angle X-ray scattering (SAXS) of vesicle suspensions, 3-Gaussian electron density model; format: physicochemical; conditions: for derived lipid volume / derived lipid volume relative to the volume from the atomic covalent radii: 3-Gaussian model; for ρC (fit parameter, hydrocarbon chain electron density relative to water) / zH (fit parameter, position of headgroup Gaussian) / σC (fit parameter, standard deviation of hydrocarbon Gaussian) / σH (fit parameter, standard deviation of headgroup Gaussian): 20° C, POPC ULVs with 5 mol % POPG; for ρC (fit parameter, hydrocarbon chain electron density relative to water): extruded 100 nm, SiPC freeze-thaw; for ρC (fit parameter, hydrocarbon chain electron density relative to water) / SAXS curve: bilayer-bilayer structure factor (Bragg peak), lamellarity: not extruded; for zH (fit parameter, position of headgroup Gaussian) / σC (fit parameter, standard deviation of hydrocarbon Gaussian) / σH (fit parameter, standard deviation of headgroup Gaussian): extruded, SiPC not extruded; for SAXS curve: bilayer-bilayer structure factor (Bragg peak), lamellarity: freeze-thaw liposomes
Procedure: as §1, §2
SAXS is sensitive to the presence of multilamellar vesicles (MLVs) and is used to evaluate the presence of MLVs. Shown in FIG. 2 are SAXS data for an about 40 mM POPC vesicle suspension in water as 100 nm ULV (black) and MLVs (gray). For MLVs, density correlations between the stacked bilayers give rise to a bilayer-bilayer structure factor also known as Bragg Peaks at a length scale corresponding to integer multiples of the lamellar repeat distance (e.g., the first Bragg order at q˜0.1 Å^−1, corresponding to a lamellar repeat distance of ˜63 Å).
The scattering regime where bilayer structure (as opposed to vesicle sphericity) dominates the form factor is of most interest as information about vesicle size is obtained from the DLS. The scattered intensity of a dilute vesicle suspension is given by:
The functional model chosen to describe the electron density of the siloxane phospholipids is the three Gaussian model as outlined by Pabst et al. (2000).^28 In this model, the electron distribution is the summation of the headgroups, described by a single Gaussian (in total 2, one for each leaflet of the bilayer) and a Gaussian representing the hydrocarbon chains, Eqn 2.
The position of the Gaussian peak is at zi where i=H or C and zC=0, with a standard deviation of σi. For simplicity, ρH−ρw and ρC−ρw are referred to herein as ρH and ρC respectively. The form factor of this electron density model can then be calculated analytically by applying Eqn 3: F(q)=∫ρ(z)exp(iqz)dz (3) which yields:
Only the cosine terms remain due to the centrosymmetric nature of a single component lipid bilayer. A benefit of this method is that structural parameters can be derived from simple geometric relationships, without the need of volumetric data. Typically area per lipid AL is one of the more desirable structural parameters to be extracted from the data. To begin, the transverse structure of the bilayer is derived (along the bilayer normal), such as the hydrocarbon length (dC) and the headgroup thickness (dH). Simply, dH can be estimated from the full width at half maximum (FWHM) of the Gaussian describing the headgroups. Using dH, dC can be determined as: […]

[4] = Langmuir isotherms of phospholipid monolayers; format: physicochemical; conditions: 21.5° C
Excerpt: The interfacial phase behaviour of lipids and phospholipids is an important area of study. Data from Langmuir isotherms can give insight into packing behaviour and collapse mechanisms of phospholipid monolayers. FIG. 1 presents the Langmuir isotherms for 1,2-SiPC, 1,3-SiPC, 1,2-dipalmitoyl-sn-3-phosphocholine (DPPC), and 1-palmitoyl-2-oleoyl-sn-3-phosphocholine (POPC). DPPC and POPC are biologically relevant lipids that are commonly used as model systems in the study of membrane topology. These two lipids differ in the degree of unsaturation with POPC containing a single unit of unsaturation in the oleic acid FA chain. […] The surface area at the collapse of 1,2-SiPC was approximately 70 Å^2 and that for 1,3-SiPC was 87 Å^2. Both of these values are larger than those observed for DPPC and POPC.
While not wishing to be bound by theory, the larger size of the siloxane tails strongly affects the mean molecular area of the lipid as well as the lipid area at monolayer collapse. Furthermore, the rotational freedom of the siloxane unit leads to behaviour similar to that for unsaturated phospholipids such as POPC.

[5] = literature SDP model; cited from earlier work
[6] = literature value; cited from earlier work
[7] = geometrically derived from SAXS fit

| SMILES | ρH (fit parameter, headgroup electron density relative to water) [1] | VH (PC headgroup volume) [1] | Dia. (vesicle diameter, most abundant population) [2] | Rel. pop. (most abundant population) [2] | Dia. (vesicle diameter, second population) [2] | Rel. pop. (second population) [2] | polydispersity [2] | derived lipid volume [3] | derived lipid volume relative to the volume from the atomic covalent radii [3] | ρC (fit parameter, hydrocarbon chain electron density relative to water) [3] | zH (fit parameter, position of headgroup Gaussian) [3] | σC (fit parameter, standard deviation of hydrocarbon Gaussian) [3] | σH (fit parameter, standard deviation of headgroup Gaussian) [3] | SAXS curve: bilayer-bilayer structure factor (Bragg peak), lamellarity [3] | AL (area per lipid) [3, 7] | VC (hydrocarbon volume) [3, 7] | dB (bilayer thickness) [3, 7] | dC (hydrocarbon length) [3, 7] | dH (headgroup thickness) [3, 7] | dHH (headgroup-headgroup distance) [3, 7] | also measured |
| --- | --- | --- | --- | --- | --- | --- | --- | --- | --- | --- | --- | --- | --- | --- | --- | --- | --- | --- | --- | --- | --- |
| C[N+](C)(C)CCOP(=O)([O-])OCC(COC(=O)CCCCCCCCC[Si](C)(C)O[Si](C)(C)O[Si](C)(C)C)OC(=O)CCCCCCCCC[Si](C)(C)O[Si](C)(C)O[Si](C)(C)C (racemic) [1,2-SiPC] | 0.1609^a e/Å^3 | 331^a Å^3 | 193.7 nm | 79% | 949.8 nm | 21% | 0.16 | 1574 Å^3 | 7 factor | −0.106 ± 0.002 e/Å^3 | 18.2 ± 0.05 Å | 14.1 ± 0.2 Å | 4.6 ± 0.1 Å | without the presence of a bilayer-bilayer structure factor (Bragg Peak) | 69 ± 2 Å^2 | 1243 ± 42 Å^3 | 45.5 ± 0.3 Å | 9.9 ± 0.5 Å | 9.1 ± 0.3 Å | 36.3 ± 0.1 Å | surface area at the collapse of the monolayer [4]: approximately 70 Å^2 |
| C[N+](C)(C)CCOP(=O)([O-])OC(COC(=O)CCCCCCCCC[Si](C)(C)O[Si](C)(C)O[Si](C)(C)C)COC(=O)CCCCCCCCC[Si](C)(C)O[Si](C)(C)O[Si](C)(C)C [1,3-SiPC] | 0.1609^a e/Å^3 | 331^a Å^3 | 123.4 nm | 89% | 684.9 nm | 11% | 0.19 | 1577 Å^3 | 7 factor | −0.101 ± 0.003 e/Å^3 | 17.6 ± 0.1 Å | 13.3 ± 0.3 Å | 4.3 ± 0.2 Å | without the presence of a bilayer-bilayer structure factor (Bragg Peak) | 72 ± 4 Å^2 | 1246 ± 81 Å^3 | 43.9 ± 0.4 Å | 13.2 ± 0.2 Å | 8.6 ± 0.5 Å | 35.3 ± 0.1 Å | surface area at the collapse of the monolayer [4]: 87 Å^2 |
| CCCCCCCC/C=C\CCCCCCCC(=O)O[C@H](COC(=O)CCCCCCCCCCCCCCC)COP(=O)([O-])OCC[N+](C)(C)C [POPC, 1-palmitoyl-2-oleoyl-sn-3-phosphocholine, reference compound] | 0.1609^a e/Å^3 | 331^a Å^3 | 98.1 nm | 100% | – | – | – | – | – | −0.152 ± 0.002 e/Å^3 | 18.16 ± 0.08 Å | 6.9 ± 0.2 Å | 3.77 ± 0.06 Å | – | 58.9 ± 2^ Å^2 | 961 ± 27 Å^3 | 43.7 Å and 43.7 ± 0.2 Å | 14.4 Å and 14.4 ± 0.1 Å | 7.5 ± 0.2 Å | 36.3 Å and 36.3 ± 0.1 Å | lamellar repeat distance ([3]; about 40 mM POPC MLVs in water, first Bragg order at q~0.1 Å^-1): ~63 Å; derived AL (area per lipid) [3, 7]: 58.9±2 Å; AL, SDP model derived [5]: 62.7±1 Å; dB (bilayer thickness), SDP analysis [5]: 39.8 Å; dC (hydrocarbon length), SDP analysis [5]: 14.6 Å; dHH (headgroup-headgroup distance), SDP analysis [5]: 37.4 Å |
| CC(C)CCCC(C)CCCC(C)CCCC(C)CC(=O)OC[C@H](COP(=O)([O-])OCC[N+](C)(C)C)OC(=O)CC(C)CCCC(C)CCCC(C)CCCC(C)C (stereo partly drawn) [diPhyPC, 1,2-diphytanoyl-sn-glycero-3-phosphatidylcholine] | – | – | – | – | – | – | – | – | – | – | – | – | – | – | – | – | – | – | – | – | AL (area per lipid) [6]: 78 Å^2 |
